Reference: patent US20130029970A1 (priority 2009, published 2013)

What was measured:
[1] = target: T1, human CB2 (hCB2) (Homo sapiens, UniProt P34972); assay: 35S GTPγS binding assay, hCB2 agonist; assay type: biochemical
T1 construct: (cDNA clone) CNR0200000
In short: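 Membranes (5 μg) from cells transfected with hCB2 cDNA in pcDNA3.1+ incubated with SPA beads, 0.1 nM [35S]GTPγS and 20 uM GDP in 50 mM HEPES pH 7.4, 100 mM NaCl, 5 mM MgCl2, 0.001% saponin, ± test compound. Incubation 90 min at room temperature; bound label read by scintillation counting.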

[2] = target: T2, human CB2 receptors (Homo sapiens, UniProt P34972); assay: cAMP assay in HEK-293 cells, hCB2 agonist; assay type: cell-based
T2 construct: (cDNA clone) CNR0200000
In short: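 HEK-293 cells stably expressing human CB2, suspended at 1,500,000 cells/mL in HBSS with 10 mM HEPES and 0.1% fatty-acid-free BSA, exposed to test compound plus forskolin (90 uM in the 3× compound solution) for 30 min at 37° C.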

[3] = target: T3, recombinant human cannabinoid receptor CB2 (Homo sapiens, UniProt P34972); assay: Cannabinoid receptor radioligand binding assay, [3H]-CP 55,940 displacement, hCB2
T3 construct: (cDNA clone) CNR0200000
In short: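 Membranes from hCB2-transfected cells, prepared by 1000×g then 40,000×g centrifugation, resuspended in 20 mM HEPES pH 7.4, 5 mM MgCl2, 1 mM EDTA, 10% sucrose.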

T2 sequence (P34972 whole entry): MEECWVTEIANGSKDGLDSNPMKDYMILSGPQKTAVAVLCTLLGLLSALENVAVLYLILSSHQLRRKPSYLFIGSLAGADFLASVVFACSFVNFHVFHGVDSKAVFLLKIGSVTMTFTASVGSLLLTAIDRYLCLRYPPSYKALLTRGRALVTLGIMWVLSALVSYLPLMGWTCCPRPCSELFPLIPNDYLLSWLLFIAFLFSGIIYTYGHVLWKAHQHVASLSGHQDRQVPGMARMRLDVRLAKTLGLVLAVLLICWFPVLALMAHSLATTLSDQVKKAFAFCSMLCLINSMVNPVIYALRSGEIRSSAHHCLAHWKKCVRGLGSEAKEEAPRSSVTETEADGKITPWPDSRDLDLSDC
T3 sequence (P34972 whole entry): as above
T1 sequence (P34972 whole entry): as above

CCOC(=O)CCn1c(C)cc2cc(C(=O)c3ccc(OC)cc3)sc21 [Compound 72, Ethyl 3-(2-(4-methoxybenzoyl)-5-methyl-6H-thieno[2,3-b]pyrrol-6-yl)propanoate]
EC50 [1]: 100 to 1000 nM
EC50 [2]: 100 to 1000 nM
IC50 [3]: 1000 to 10000 nM

COc1ccc(C(=O)c2cc3cc(C)n(CCCNC(=O)C(F)(F)F)c3s2)cc1 [Compound 76, 2,2,2-Trifluoro-N-(3-(2-(4-methoxybenzoyl)-5-methyl-6H-thieno[2,3-b]pyrrol-6-yl)propyl)acetamide]
EC50 [1]: 100 to 1000 nM
EC50 [2]: 100 to 1000 nM
IC50 [3]: 100 to 1000 nM

COc1ccc(C(=O)c2cc3cc(C)n(CCC(C)(C)O)c3s2)cc1 [Compound 77, (6-(3-Hydroxy-3-methylbutyl)-5-methyl-6H-thieno[2,3-b]pyrrol-2-yl)(4-methoxyphenyl)methanone]
EC50 [1]: 100 to 1000 nM
EC50 [2]: 100 to 1000 nM
IC50 [3]: 1000 to 10000 nM

Cc1ccc(C(=O)c2cc3cc(C)n(CCN4CCOCC4)c3s2)c(F)c1 [Compound 80, (2-Fluoro-4-methylphenyl)(5-methyl-6-(2-morpholinoethyl)-6H-thieno[2,3-b]pyrrol-2-yl)methanone]
EC50 [1]: < 100 nM
EC50 [2]: < 100 nM
IC50 [3]: 100 to 1000 nM

COc1ccc(C(=O)c2cc3cc(C)n(CCN4CCCC4)c3s2)cc1 [Compound 83, (4-Methoxyphenyl)(5-methyl-6-(2-(pyrrolidin-1-yl)ethyl)-6H-thieno[2,3-b]pyrrol-2-yl)methanone]
EC50 [1]: 100 to 1000 nM
EC50 [2]: < 100 nM
IC50 [3]: 100 to 1000 nM

Cc1ccc(C(=O)c2cc3cc(C)n(CCN4CCOCC4)c3s2)c(Cl)c1 [Compound 86, (2-Chloro-4-methylphenyl)(5-methyl-6-(2-morpholinoethyl)-6H-thieno[2,3-b]pyrrol-2-yl)methanone]
EC50 [1]: < 100 nM
EC50 [2]: < 100 nM
IC50 [3]: < 100 nM

COc1ccc(C(=O)c2cc3cc(C)n(CCN4CCOCC4)c3s2)c(C)c1 [Compound 88, (4-Methoxy-2-methylphenyl)(5-methyl-6-(2-morpholinoethyl)-6H-thieno[2,3-b]pyrrol-2-yl)methanone]
EC50 [1]: < 100 nM
EC50 [2]: < 100 nM
IC50 [3]: < 100 nM

CCOc1ccc(C(=O)c2cc3cc(C)n(CCN4CCOCC4)c3s2)c(F)c1 [Compound 89, (4-Ethoxy-2-fluorophenyl)(5-methyl-6-(2-morpholinoethyl)-6H-thieno[2,3-b]pyrrol-2-yl)methanone]
EC50 [1]: < 100 nM
EC50 [2]: < 100 nM
IC50 [3]: 100 to 1000 nM

COc1ccc(C(=O)c2cc3cc(C)n(CCN4CCCCC4)c3s2)c(Cl)c1 [Compound 90, (2-Chloro-4-methoxyphenyl)(5-methyl-6-(2-(piperidin-1-yl)ethyl)-6H-thieno[2,3-b]pyrrol-2-yl)methanone]
EC50 [1]: < 100 nM
EC50 [2]: < 100 nM
IC50 [3]: < 100 nM

COc1ccc(C(=O)c2cc3cc(C)n(CCN4CCCC4)c3s2)c(F)c1 [Compound 92, (2-Fluoro-4-methoxyphenyl)(5-methyl-6-(2-(pyrrolidin-1-yl)ethyl)-6H-thieno[2,3-b]pyrrol-2-yl)methanone]
EC50 [1]: < 100 nM
EC50 [2]: < 100 nM
IC50 [3]: 100 to 1000 nM

COc1ccc(C(=O)c2cc3cc(C)n(CCN4CCCC4)c3s2)c(Cl)c1 [Compound 93, (2-Chloro-4-methoxyphenyl)(5-methyl-6-(2-(pyrrolidin-1-yl)ethyl)-6H-thieno[2,3-b]pyrrol-2-yl)methanone]
EC50 [1]: < 100 nM
EC50 [2]: < 100 nM
IC50 [3]: < 100 nM

COc1ccc(C(=O)c2cc3cc(C)n(CCCNS(C)(=O)=O)c3s2)c(C)c1 [Compound 96, N-(3-(2-(4-Methoxy-2-methylbenzoyl)-5-methyl-6H-thieno[2,3-b]pyrrol-6-yl)propyl)methanesulfonamide]
EC50 [1]: < 100 nM
EC50 [2]: < 100 nM
IC50 [3]: < 100 nM

COc1ccc(C(=O)c2cc3cc(C)n(CCN4CCCCC4)c3s2)c(F)c1 [Compound 98, (2-Fluoro-4-methoxyphenyl)(5-methyl-6-(2-(piperidin-1-yl)ethyl)-6H-thieno[2,3-b]pyrrol-2-yl)methanone]
EC50 [1]: < 100 nM
EC50 [2]: < 100 nM
IC50 [3]: < 100 nM
